# Reference: PubChem BioAssay AID248 (DTP/NCI, 2004)
# “And” between values parts separate entries of the source, which are not always exact repeats. Identical values can stand only once. Toxic doses and inconclusive results are not listed.
# Test system: L1210 leukemia ip in BDF1 mice, survival T/C
# Test: NCI In Vivo Anticancer Drug Screen. Data for tumor model L1210 Leukemia (intraperitoneal) in B6D2F1 (BDF1) mice
# Conditions: higher = longer survival
# Summary of the method: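 Ratio derived from survival: compound-dosed mice over vehicle-dosed mice, all bearing a transplantable tumor.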
smiles,measurement,setting,value
C1CN1c1nc(N2CC2)nc(N2CC2)n1,T/C,"endpoint: mean survival time, dose: 0.05 mg/kg/injection, schedule: Q01DX009 (ip), vehicle: saline",94 % of control
same,T/C,"endpoint: mean survival time, dose: 0.06 mg/kg/injection, schedule: Q01DX009 (ip), vehicle: saline",95 % of control
same,T/C,"endpoint: mean survival time, dose: 0.06 mg/kg/injection, schedule: Q01DX Z (ip), vehicle: saline",97 % of control
same,T/C,"endpoint: mean survival time, dose: 0.1 mg/kg/injection, schedule: Q01DX009 (ip), vehicle: saline",105 % of control
same,T/C,"endpoint: mean survival time, dose: 0.12 mg/kg/injection, schedule: Q01DX005 (ip), vehicle: saline",115 % of control
same,T/C,"endpoint: mean survival time, dose: 0.12 mg/kg/injection, schedule: Q01DX009 (ip), vehicle: saline",107 % of control
same,T/C,"endpoint: mean survival time, dose: 0.12 mg/kg/injection, schedule: Q01DX009 (sc), vehicle: saline",101 % of control
same,T/C,"endpoint: mean survival time, dose: 0.12 mg/kg/injection, schedule: Q01DX010 (ip), vehicle: saline",110 % of control
same,T/C,"endpoint: mean survival time, dose: 0.12 mg/kg/injection, schedule: Q01DX Z (ip), vehicle: carboxymethylcellulose (CMC)",113 % of control
same,T/C,"endpoint: mean survival time, dose: 0.12 mg/kg/injection, schedule: Q01DX Z (ip), vehicle: saline",118 % of control
same,T/C,"endpoint: mean survival time, dose: 0.13 mg/kg/injection, schedule: Q01DX009 (ip), vehicle: saline",110 % of control
same,T/C,"endpoint: mean survival time, dose: 0.13 mg/kg/injection, schedule: Q01DX010 (oral), vehicle: carboxymethylcellulose (CMC)",119 % of control
same,T/C,"endpoint: mean survival time, dose: 0.16 mg/kg/injection, schedule: Q01DX001 (ip), vehicle: saline",109 % of control and 120 % of control
same,T/C,"endpoint: mean survival time, dose: 0.2 mg/kg/injection, schedule: Q01DX009 (ip), vehicle: saline",121 % of control
same,T/C,"endpoint: mean survival time, dose: 0.25 mg/kg/injection, schedule: Q01DX001 (ip), vehicle: saline",103 % of control
same,T/C,"endpoint: mean survival time, dose: 0.25 mg/kg/injection, schedule: Q01DX005 (ip), vehicle: saline",115 % of control
same,T/C,"endpoint: mean survival time, dose: 0.25 mg/kg/injection, schedule: Q01DX006 (iv), vehicle: saline",119 % of control
same,T/C,"endpoint: mean survival time, dose: 0.25 mg/kg/injection, schedule: Q01DX009 (sc), vehicle: saline",123 % of control
same,T/C,"endpoint: mean survival time, dose: 0.25 mg/kg/injection, schedule: Q01DX Z (ip), vehicle: carboxymethylcellulose (CMC)",119 % of control
same,T/C,"endpoint: mean survival time, dose: 0.25 mg/kg/injection, schedule: Q01DX Z (sc), vehicle: saline",124 % of control
same,T/C,"endpoint: mean survival time, dose: 0.48 mg/kg/injection, schedule: Q## X008 (ip), vehicle: saline",110 % of control
same,T/C,"endpoint: mean survival time, dose: 0.48 mg/kg/injection, schedule: Q## X016 (ip), vehicle: saline",103 % of control
same,T/C,"endpoint: mean survival time, dose: 0.48 mg/kg/injection, schedule: Q## X024 (ip), vehicle: saline",107 % of control
same,T/C,"endpoint: mean survival time, dose: 0.5 mg/kg/injection, schedule: Q01DX001 (ip), vehicle: saline",107 % of control
same,T/C,"endpoint: mean survival time, dose: 0.5 mg/kg/injection, schedule: Q01DX001 (sc), vehicle: saline",112 % of control
same,T/C,"endpoint: mean survival time, dose: 0.5 mg/kg/injection, schedule: Q01DX006 (iv), vehicle: saline",150 % of control
same,T/C,"endpoint: mean survival time, dose: 0.5 mg/kg/injection, schedule: Q01DX009 (oral), vehicle: saline",107 % of control
same,T/C,"endpoint: mean survival time, dose: 0.5 mg/kg/injection, schedule: Q01DX010 (oral), vehicle: carboxymethylcellulose (CMC)",164 % of control
same,T/C,"endpoint: mean survival time, dose: 0.5 mg/kg/injection, schedule: Q01DX Z (im), vehicle: saline",156 % of control
same,T/C,"endpoint: mean survival time, dose: 0.5 mg/kg/injection, schedule: Q04DX003 (ip), vehicle: Klucel (hydroxypropylcellulose) (HPC)",117 % of control
same,T/C,"endpoint: mean survival time, dose: 0.5 mg/kg/injection, schedule: Q## X002 (ip), vehicle: saline",109 % of control
same,T/C,"endpoint: mean survival time, dose: 0.5 mg/kg/injection, schedule: Q## X003 (ip), vehicle: saline",110 % of control and 115 % of control
same,T/C,"endpoint: mean survival time, dose: 0.5 mg/kg/injection, schedule: Q## X006 (ip), vehicle: saline",107 % of control
same,T/C,"endpoint: mean survival time, dose: 0.5 mg/kg/injection, schedule: Q## X024 (ip), vehicle: saline",102 % of control
same,T/C,"endpoint: mean survival time, dose: 0.5 mg/kg/injection, schedule: Q#A X Z (ip), vehicle: saline",151 % of control
same,T/C,"endpoint: mean survival time, dose: 0.67 mg/kg/injection, schedule: Q01DX005 (ip), vehicle: saline",153 % of control and 158 % of control
same,T/C,"endpoint: mean survival time, dose: 0.7 mg/kg/injection, schedule: Q01DX001 (ip), vehicle: saline",103 % of control and 105 % of control
same,T/C,"endpoint: mean survival time, dose: 0.8 mg/kg/injection, schedule: Q01DX009 (ip), vehicle: saline",115 % of control
same,T/C,"endpoint: mean survival time, dose: 0.86 mg/kg/injection, schedule: Q01DX001 (ip), vehicle: saline",159 % of control
same,T/C,"endpoint: mean survival time, dose: 0.96 mg/kg/injection, schedule: Q## X008 (ip), vehicle: saline",106 % of control
same,T/C,"endpoint: mean survival time, dose: 0.96 mg/kg/injection, schedule: Q## X016 (ip), vehicle: saline",111 % of control
same,T/C,"endpoint: mean survival time, dose: 1.0 mg/kg/injection, schedule: Q01DX001 (sc), vehicle: saline",115 % of control
same,T/C,"endpoint: mean survival time, dose: 1.0 mg/kg/injection, schedule: Q01DX006 (iv), vehicle: saline",114 % of control
same,T/C,"endpoint: mean survival time, dose: 1.0 mg/kg/injection, schedule: Q01DX009 (oral), vehicle: saline",124 % of control
same,T/C,"endpoint: mean survival time, dose: 1.0 mg/kg/injection, schedule: Q01DX010 (oral), vehicle: carboxymethylcellulose (CMC)",119 % of control
same,T/C,"endpoint: mean survival time, dose: 1.0 mg/kg/injection, schedule: Q01DX Z (ip), vehicle: saline",96 % of control and 110 % of control
same,T/C,"endpoint: mean survival time, dose: 1.0 mg/kg/injection, schedule: Q04DX003 (ip), vehicle: Klucel (hydroxypropylcellulose) (HPC)",152 % of control and 173 % of control
same,T/C,"endpoint: mean survival time, dose: 1.0 mg/kg/injection, schedule: Q## X003 (ip), vehicle: saline",177 % of control
same,T/C,"endpoint: mean survival time, dose: 1.0 mg/kg/injection, schedule: Q## X008 (ip), vehicle: saline",108 % of control
same,T/C,"endpoint: mean survival time, dose: 1.0 mg/kg/injection, schedule: Q#A X Z (ip), vehicle: saline",93 % of control
same,T/C,"endpoint: mean survival time, dose: 1.3 mg/kg/injection, schedule: Q## X003 (ip), vehicle: saline",164 % of control
same,T/C,"endpoint: mean survival time, dose: 1.3 mg/kg/injection, schedule: Q## X004 (ip), vehicle: saline",185 % of control
same,T/C,"endpoint: mean survival time, dose: 1.5 mg/kg/injection, schedule: Q01DX005 (ip), vehicle: saline",118 % of control
same,T/C,"endpoint: mean survival time, dose: 1.5 mg/kg/injection, schedule: Q04DX003 (ip), vehicle: saline",169 % of control
same,T/C,"endpoint: mean survival time, dose: 1.75 mg/kg/injection, schedule: Q07DX Z (ip), vehicle: saline",193 % of control
same,T/C,"endpoint: mean survival time, dose: 2.0 mg/kg/injection, schedule: Q01DX001 (oral), vehicle: saline",106 % of control
same,T/C,"endpoint: mean survival time, dose: 2.0 mg/kg/injection, schedule: Q01DX001 (sc), vehicle: saline",159 % of control
same,T/C,"endpoint: mean survival time, dose: 2.0 mg/kg/injection, schedule: Q01DX010 (oral), vehicle: carboxymethylcellulose (CMC)",97 % of control
same,T/C,"endpoint: mean survival time, dose: 2.0 mg/kg/injection, schedule: Q## X002 (ip), vehicle: saline",197 % of control
same,T/C,"endpoint: mean survival time, dose: 2.0 mg/kg/injection, schedule: Q## X003 (ip), vehicle: saline",172 % of control and 186 % of control
same,T/C,"endpoint: mean survival time, dose: 2.0 mg/kg/injection, schedule: Q## X004 (ip), vehicle: saline",191 % of control
same,T/C,"endpoint: mean survival time, dose: 2.0 mg/kg/injection, schedule: Q## X006 (ip), vehicle: saline",193 % of control
same,T/C,"endpoint: mean survival time, dose: 2.0 mg/kg/injection, schedule: Q## X016 (ip), vehicle: saline",168 % of control
same,T/C,"endpoint: mean survival time, dose: 2.0 mg/kg/injection, schedule: Q## X024 (ip), vehicle: saline",188 % of control
same,T/C,"endpoint: mean survival time, dose: 2.1 mg/kg/injection, schedule: Q01DX001 (ip), vehicle: saline",187 % of control
same,T/C,"endpoint: mean survival time, dose: 3.0 mg/kg/injection, schedule: Q01DX001 (ip), vehicle: saline",107 % of control
same,T/C,"endpoint: mean survival time, dose: 3.0 mg/kg/injection, schedule: Q## X003 (ip), vehicle: saline",150 % of control
same,T/C,"endpoint: mean survival time, dose: 3.0 mg/kg/injection, schedule: Q## X004 (ip), vehicle: saline",108 % of control
same,T/C,"endpoint: mean survival time, dose: 3.13 mg/kg/injection, schedule: Q01DX001 (ip), vehicle: saline",164 % of control
same,T/C,"endpoint: mean survival time, dose: 3.2 mg/kg/injection, schedule: Q01DX001 (ip), vehicle: saline",213 % of control
same,T/C,"endpoint: mean survival time, dose: 4.0 mg/kg/injection, schedule: Q01DX001 (oral), vehicle: saline",122 % of control
same,T/C,"endpoint: mean survival time, dose: 4.0 mg/kg/injection, schedule: Q01DX009 (oral), vehicle: saline",113 % of control
same,T/C,"endpoint: mean survival time, dose: 4.0 mg/kg/injection, schedule: Q01DX Z (oral), vehicle: saline",93 % of control
same,T/C,"endpoint: mean survival time, dose: 4.0 mg/kg/injection, schedule: Q## X002 (ip), vehicle: saline",118 % of control
same,T/C,"endpoint: mean survival time, dose: 4.0 mg/kg/injection, schedule: Q## X006 (ip), vehicle: saline",95 % of control
same,T/C,"endpoint: mean survival time, dose: 4.5 mg/kg/injection, schedule: Q01DX001 (ip), vehicle: saline",94 % of control
same,T/C,"endpoint: mean survival time, dose: 4.5 mg/kg/injection, schedule: Q## X003 (ip), vehicle: saline",98 % of control
same,T/C,"endpoint: mean survival time, dose: 4.5 mg/kg/injection, schedule: Q## X004 (ip), vehicle: saline",106 % of control
same,T/C,"endpoint: mean survival time, dose: 8.0 mg/kg/injection, schedule: Q01DX001 (ip), vehicle: saline",110 % of control
same,T/C,"endpoint: mean survival time, dose: 16.0 mg/kg/injection, schedule: Q01DX001 (ip), vehicle: saline",107 % of control
same,T/C,"endpoint: mean survival time, dose: 49.0 micrograms/kg/injection, schedule: Q01DX Z (ip), vehicle: carboxymethylcellulose (CMC)",95 % of control
same,T/C,"endpoint: mean survival time, dose: 98.0 micrograms/kg/injection, schedule: Q01DX Z (ip), vehicle: carboxymethylcellulose (CMC)",97 % of control
same,T/C,"endpoint: mean survival time, dose: 195.0 micrograms/kg/injection, schedule: Q01DX Z (ip), vehicle: carboxymethylcellulose (CMC)",95 % of control
same,T/C,"endpoint: mean survival time, dose: 390.0 micrograms/kg/injection, schedule: Q01DX Z (ip), vehicle: carboxymethylcellulose (CMC)",100 % of control
same,T/C,"endpoint: median survival time, dose: 0.25 mg/kg/injection, schedule: Q01DX001 (ip), vehicle: saline",104 % of control
same,T/C,"endpoint: median survival time, dose: 0.5 mg/kg/injection, schedule: Q01DX001 (ip), vehicle: saline",115 % of control
